Test results as given in BindingDB's records for doi:10.1021/jm801126a (Cornell University, 2009).

Target: T1, S-adenosylmethionine decarboxylase proenzyme (Homo sapiens, UniProt P17707)
T1 sequence (P17707 whole entry): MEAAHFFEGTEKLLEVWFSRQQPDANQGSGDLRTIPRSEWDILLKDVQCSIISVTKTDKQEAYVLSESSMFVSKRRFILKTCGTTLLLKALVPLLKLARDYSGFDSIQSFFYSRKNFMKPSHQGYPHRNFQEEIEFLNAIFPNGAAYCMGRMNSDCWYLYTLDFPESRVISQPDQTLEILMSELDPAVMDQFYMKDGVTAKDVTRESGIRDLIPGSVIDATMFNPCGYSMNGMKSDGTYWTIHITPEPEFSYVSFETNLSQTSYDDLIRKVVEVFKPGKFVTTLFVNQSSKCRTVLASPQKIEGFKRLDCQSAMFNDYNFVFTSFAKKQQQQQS
Experiment: AdoMetDC Inhibition Assay
Procedure: The C-terminal his-tagged AdoMetDC was assayed by measuring the release of 14CO2 from S-adenosyl-L-[carboxy-14C]methionine (Amersham Pharmacia Biotech). For determination of the abilities of compounds to inhibit AdoMetDC, the enzyme activity was determined in the presence of no inhibitor and at least five concentrations of each potential inhibitor. The IC50 values were determined from curve fitting to plots of the inhibitor concentration versus the % inhibition of AdoMetDC.

C[S+](C)C[C@H]1O[C@@H](n2cnc3c(N)ncnc32)[C@H](O)[C@@H]1O [{[(2S,3S,4R,5R)-5-(6-amino-9H-purin-9-yl)-3,4-dihydroxyoxolan-2-yl]methyl}dimethylsulfanium chloride]
IC50: 15 µM
